Measured values published in patent US7759392B2, “Pharmaceutical compounds” (Nicox S.A., priority 1999, dated 2010).
“Also recorded” adds a separate entry of the source. Read-outs that look alike come from different tables or passages of the source.

Assays:
[1] = test system: human endothelial cells of the umbilical vein; experiment: Experiment F6: apoptosis (DNA fragmentation) induced in endothelial cells by hydrogen peroxide; type: cell-based; conditions: Endothelial cell, products 100 mmoles/l, hydrogen peroxide 200 mmoles/l, 18 hours, read-out: Apoptosis % (respect to the controls treated only with CIP)
Text: It has been Evaluated the Activity of Some of the Compounds Object of the Present Invention and of the Corresponding Precursor Drugs in Inhibiting DNA Degradation (Apoptosis) in Endothelial Cells Exposed to the Action of Hydrogen Peroxide (HP)
Hydrogen peroxide is a mild oxidant and is considered as an essential mediating agent in pathologies associated with oxidative stress (B. Halliwell, J. Gutteridge “Free Radicals in Biology and Medicine”, page 416, 1993). Therefore the pharmacological activity of compounds to be used under oxidative stress conditions is evaluated through their capability of neutralizing the cytolesive effects of the hydrogen peroxide (B. Halliwell, J. Gutteridge “Free Radicals in Biology and Medicine”, page 416, 1993).
The method described by Herman et Al. (Herman C., Zeiner M. A., Dimmeler S., Arterioscler. Thromb. Vasc. Biol. 17 (12), 3588-82, 1997).
Human endothelial cells of the umbilical vein are prepared according to a standard method. Fresh umbilical veins, just removed, are filled with a solution of collagenase at 0.1% and incubated at 37° C. for 5 minutes.
Subsequently the veins are perfused with medium M 199 (GIBCO, Grand Island, N.Y.) pH 7.4 containing 20% of human serum. The cells are collected from the perfusate by centrifugation at 800 rpm and harvested in culture flasks T-75, pretreated with human fibronectin. […]

gastrointestinal mucosa = conditions: male, Wistar, rat, in vivo, 6 h
Procedure: Gastric lesions induced by administration of the compounds of the invention in the confront of the corresponding drug precursor.
The animals have been sacrificed 6 hours after the administration. The gastrointestinal mucosa has been removed and inspected. The incidence of the gastrointestinal damage has been evaluated as described in experiment F1.

[2] = test system: human endothelial cells of the umbilical vein; experiment: Test 2 (CIP): apoptosis (DNA fragmentation) induced by cumene hydroperoxide in endothelial cells; type: cell-based; conditions: drug 10^-4 M; CIP 5 mM
Procedure: Test 2 (CIP): Protection parameter of endothelial cell against the oxidative stress induced by cumene hydroperoxide (CIP).
Human endothelial cells of the umbilical vein are prepared according to an usual standard procedure. Fresh umbilical veins are filled with a 0.1% by weight collagenase solution and incubated at 37° C. for 5 minutes.
The cells are collected from the perfusate by centrifugation and harvested in culture flasks T-75, pretreated with human fibronectin. The cells are then harvested in the same medium, further added with 10 ng/ml of bovine hypothalamic growth factor. When the cells of the primary cell culture (i.e. that directly obtained from ex-vivo) form a single layer of confluent cells (about 8,000,000 cells/flask), the culture is stopped and the layers washed and trypsinized. The cellular suspensions are transferred into the wells of a cell culture plate having 24 wells, half of which is then additioned with the same culture medium containing the drug at a 10^−4M concentration, and harvested in a thermostat at 37° C. at a constant moisture. Only the cells coming from said first sub-cultures are used for the experiments with cumene hydroperoxide (CIP).
Before starting the test, the cellular culture medium is removed and the cellular layers are carefully washed with a physiologic solution at a temperature of 37° C. The wells of the culture plate are then incubated for one hour with CIP at a 5 mM concentration in the culture medium. […] 5 replicates for each sample are carried out.
Human endothelial cells of the umbilical vein are prepared according to a standard method. Fresh umbilical veins are filled with a collagenase solution 0.1% by weight and incubated at 37° C. for 5 minutes.
The cells are collected from the perfusate by centrifugation at 800 rpm and harvested in culture flasks T-75, pretreated with human fibronectin. Cells are then harvested in the same medium, added with bovine hypothalamic growth factor (100 ng/ml). When the cells of the primary cell culture (the cells directly removed from ex-vivo umbilical vein) form a single layer of confluent cells (about 8,000,000 cells/flask), harvesting is stopped and the layers are washed and trypsinized. The cellular suspensions are transferred into wells of a culture plate having 24 wells, half of said wells being added with the same culture medium containing the drug at a 10^−4M concentration, and harvested in a thermostat at 37° C. at a constant moisture (90%), CO2=5%. When the drug is not soluble in the culture medium, it is formerly dissolved in a small amount of dimethylsulphoxide. The maximum amount of dimethylsulphoxide which can be added to the culture medium is 0.5%. Only the cells coming from these first subcultures are used for the tests with cumene hydroperoxide (CIP).
Before starting the test, the cellular culture medium is removed and the cellular layers are carefully washed with a standard physiologic solution buffered with phosphate 0.1 M pH 7.0, at the temperature of 37° C. The content of each well is then incubated for one hour with a CIP suspension in the culture medium at a 5 mM concentration. Evaluation of the cellular damage (apoptosis) is carried out by determining the percent variation of the DNA fragmentation in the cultures containing the drug+CIP with respect to the controls treated with CIP only. […] The fluorescence of each sample was determined on 5 replicates. Statistic evaluation has been made with t Student test (p<0.01).

[3] = type: biochemical
Procedure: Test 5 is a […] test wherein 0.1 ml aliquots of 10^−4 M methanolic solutions of the tested products are added to test tubes containing a solution formed by 0.2 ml of 2 mM deoxyribose, 0.4 ml of phosphate buffer pH 7.4 100 mM and 0.1 ml of 1 mM Fe^II(NH4)2(SO4)2 in 2 mM HCl. The test tubes are then maintained at 37° C. for one hour. Then in each test tube 0.5 ml of a 2.8% solution in trichloroacetic acid water and 0.5 ml of an aqueous 0.1 M solution of thiobarbituric acid are added, in the order. A reference blank is formed by adding to a test tube containing only the above described aqueous solution of reactants 0.1 ml of methanol. […] A pink coloration is developed the intensity of which is proportional to the quantity of deoxyribose undergone to radical oxidative degradation. The solutions are cooled at room temperature and their absorbances are read at 532 nm against the blank. The inhibition induced by the precursor of B or B1 or C=-Tc-Y—H in the confront of radical production by Fe^II is determined by means of the following formula: (1−As/Ac)×100 wherein As and Ac are respectively the absorbance values of the solution containing the tested compound+the iron salt and that of the solution containing only the iron salt, the compound meets test 5 when the inhibition percentage of radical production as above defined from the precursor of B is higher than or equal to 50%. […]

liver = experiment: Example F10: liver safety (AST, ALT, glutathione, bilirubin); type: in vivo, rat; conditions: rats, 6 hours; for AST %: i.p. (NO-paracetamol 1.4 g/Kg, paracetamol 1.16 g/Kg); for AST % / ALT % / Bilirubin % / Glutathione %: % of vehicle group; for hepatic damage (in words) / ALT % / Bilirubin % / Glutathione %: i.p.; for Glutathione %: liver glutathione
Procedure: After 6 hours the animals were killed by cervical dislocation, trunk blood collected and plasma analysed for aspartate aminotransferase (AST) and alanine aminotransferase (ALT) activity, liver glutathione and bilirubin concentration.

[4] = test system: carrageenan rat paw edema; experiment: Carrageenan rat paw edema; type: in vivo; conditions: for Antiinflammatory activity % paw edema inhibition: rat, intraperitoneally prior to carrageenan, 3 h
Procedure: (§1) Antiinflammatory and analgesic activity have been measured according to carrageenan rat paw edema and acetic acid mouse writhing methods.
Experiments were conducted as described by Al-Swayeh et al., Brit. J. Pharmacol. 129, 343-350 2000). Hind paw volume was determined by plethysmography before and after 3 h after interplantar carrageenan injection (100 microliter, 2% w/v). The compounds were given intraperitoneally […] prior to carrageenan injection. At the end of the experiment animals were killed by cervical dislocation and exsanguination. The Results shown in Table IX are expressed as % of paw edema inhibition, i.e. the paw volume of the controls (vehicle) subtracted of the paw volume of the treated and the obtained difference divided by the paw volume of the controls.

[5] = test system: acetic acid mouse writhing; experiment: Acetic acid mouse writhing; type: in vivo
Procedure: as §1
Experiments were conducted as described by Moore et al. (Br. J. Pharmacol. 102, 198-202 1990). The compounds were given orally 15 minutes prior to intraperitoneal acetic acid (2% w/v in saline pH 2.7, 10 ml/Kg). Mice were transferred immediately to individual observation cages and the number of abdominal constrictions monitored over the following 30 minutes. At the end of the observation period the animals were killed by cervical dislocation and exsanguination. Results are expressed as the number of abdominal constrictions (writhings) per 30 minutes test period, expressed as percentage to those observed in the control group, and are reported in Table IX.

erythrocytes = experiment: Test 4A: inhibition of erythrocyte haemolysis induced by cumene hydroperoxide; conditions: 2 mM; for % Haemolysis inhibition: preincubated 30 minutes, cumene hydroperoxide 270 μM, at Tmax

With `NCCCC(O)(P(=O)(O)O)P(=O)(O)O` [Alendronate, sodic alendronate] the activity at 100000 µM [1] was 18%, the Gastropathy % incidence (gastrointestinal mucosa) was 100% and the “inhibition of apoptosis induced by CIP (in words, p<0.01)” value [2] was “do not significantly inhibit apoptosis”.

With `OCCCCO` [1,4-Butandiol] the “% Radical inhibition from Fe^II” value [3] was 0%.

For `CC(=O)Nc1ccc(O)cc1` [Paracetamol, paracetamol], the AST % (liver) was 330%, the “hepatic damage (in words)” value (liver) was “causes hepatic damage” and the ALT % (liver) was 171%. For the same compound, the Bilirubin % (liver) was 200%, the Glutathione % (liver) was 52% and the “Antiinflammatory activity % paw edema inhibition” value [4] was 34%. For the same compound, the “Analgesic activity % writhing inhibition” value ([5]; mice, orally 15 minutes prior to intraperitoneal acetic acid, 30 minutes) was 40% and the “inhibition of apoptosis induced by CIP (in words, p<0.01)” value [2] was “do not significantly inhibit apoptosis; also recorded: not significantly different with respect to that of the controls”.

For `CC(=O)Nc1ccc(OC(=O)CCCO[N+](=O)[O-])cc1` [Example 1, 4-nitroxybutyric acid 4′-acetylamino phenyl ester], the AST % (liver) was 160%, the ALT % (liver) was 57% and the Bilirubin % (liver) was 136%. The “hepatic damage (in words)” value (liver; listed as NO-paracetamol) was “much lower increases of AST and ALT; also recorded: the bilirubin concentration is lower than that in the control groups; also recorded: able to spare the liver”, the Glutathione % (liver) was 49% and the “antiinflammatory activity compared with paracetamol (in words)” value ([4]; carrageenan paw edema) was “much more active in both tests than paracetamol”. The “Antiinflammatory activity % paw edema inhibition” value [4] was 69% and the “analgesic activity compared with paracetamol (in words)” value ([5]; acetic acid writhing) was “much more active in both tests than paracetamol”.

For `OCCNCCO` [Diethanolamine], the “inhibition of haemolysis induced by cumene hydroperoxide (in words)” value (erythrocytes) was “does not inhibit haemolysis” and the “% Haemolysis inhibition” value (erythrocytes) was 2.5%.

With `OCCOCCO` [Diethylenglycol] the “% Haemolysis inhibition” value (erythrocytes) was 33.4% and the “% Radical inhibition from Fe^II” value ([3]; 10^-4 M methanolic solution, 37° C. one hour, absorbance 532 nm) was 0%.
